# From patent US5639726A, “Peptide mediated enhancement of thrombolysis methods and compositions” (The Regents of the University of Michigan, priority 1994, dated 1997)
# Entries after “also recorded” stand apart in the source; their conditions may differ. Ends that are not written are not given here.
# How the values were obtained:
# PAI-1 [1] = target: T1, PAI-1 (Homo sapiens, UniProt P05121); test: SDS-PAGE of peptide treated PAI-1 reacted with tPA, uPA or trypsin; assay type: biochemical; settings: for formation of SDS stable PAI-1:enzyme complexes after peptide treatment: free PAI-1 preincubated with peptide, then tPA (uPA or trypsin); for conversion of PAI-1 to a substrate (cleaved PAI-1): peptide treated PAI-1 reacted with tPA
# T1 construct: made in house; host or cells: E. coli (vector pET3a)
# Protocol: (§1) SDS-polyacrylamide gel electrophoresis (SDS-PAGE) under nonreducing conditions was carried out according to the method of Laemmli (Laemmli, 1970) on 10% gels. Native gel electrophoresis with 5% gels was carried out by omitting SDS and boiling from Laemmli's method. All gels were stained with Coomassie brilliant blue. Gels of PAI-peptide samples were scanned with an LKB Ultroscan XL Laser Densitometer to determine the relative amounts of peptide-annealed and latent PAI.
# PAI that had been incubated with peptide was tested for inhibitory and substrate activity by incubating with tPA, uPA or trypsin. SDS-PAGE was then performed on the samples. Free PAI formed a complex band when incubated with any of the enzymes, as well as a faint band indicative of cleaved PAI. Because substoichiometric amounts of enzyme were used there was also a band for free PAI. When PAI was incubated with any of the peptides, the electrophoretic mobility was the same as that of free PAI after denaturing with SDS. When PAI was annealed to any of 8-mers, then allowed to react with tPA, uPA or trypsin, no PAI-enzyme complex band was seen.
# SDS-PAGE was performed using a PhastSystem (Pharmacia), Upssala, Sweden, according to manufacturer's instructions. Gels were stained with Coomassie Brilliant Blue.
# SDS-PAGE was performed to determine the effect of Thr-Val-Ala-Ser-Ser-Ser-Thr-Ala-Val-Ile-Val-Ser-Ala-Arg (SEQ ID NO: 1) on t-PA:PAI-1 complex formation in the presence and absence of vitronectin.
# vitronectin-bound PAI-1 = target: T2, vitronectin-bound PAI-1 (Homo sapiens, UniProt P05121); test: PAI-1 activity assay in the presence of vitronectin; assay type: biochemical; settings: for T1/2 of vitronectin-bound PAI-1: PAI-1 0.7 μM with vitronectin 1.7 μM, 37° C., 190±12 minutes without peptide
# T2 construct: made in house; host or cells: E. coli (PAI-1); vitronectin a gift
# Protocol: PAI-1 (0.7 μM) was incubated at 37° C. with either P1-P14 peptide or control peptide (55 μM) in 0.1M HEPES, 0.1M NACl, 0.1% PEG (MW 8000), pH 7.4 (assay buffer). At timed intervals 0-110 minutes), 5 μL of the PAI-1:peptide mixture was added to 96 well microtiter plates containing 45 μL of t-PA (0.03 μM in assay buffer), then incubated for 30 minutes at 37° C. Spectrozyme t-PA (final concentration of 150 μM) was added to yield a final reaction volume of 70 μL, and 30 minutes later the absorbance at 405 nm was determined in a THERMO-max (Molecular Devices, Palo Alto, Calif.) microplate reader. 100% PAI-1 activity was defined as activity observed at time zero, while 0% PAI-1 activity was defined as that observed in the absence of PAI-1. A standard t-PA activity curve, derived from absorbance values of varying concentrations of t-PA incubated in the absence of PAI-1, was used to determine PAI-1 activity.
# Since vitronectin binds and stabilizes the active conformation of PAI-1, the capacity of the Thr-Val-Ala-Ser-Ser-Ser-Thr-Ala-Val-Ile-Val-Ser-Ala-Arg (SEQ ID NO: 1) to inactivate vitronectin-bound PAI-1 was examined. PAI-1 (0.7 μM) was incubated with vitronectin (1.7 μM) for 30 minutes at 37° C., then Thr-Val-Ala-Ser -Ser-Ser-Thr-Ala-Val-Ile-Val-Ser-Ala-Arg (SEQ ID NO: 1) or control peptide (55 μM) was added, and the PAI-1 T1/2 was determined. In the presence of vitronectin, the T1/2 of PAI-1 was prolonged approximately 2-fold (98±18 to 190±12 minutes), similar to previous reports (Declerck et al. 1988).
# PAI-1 [2] = target: T1, PAI-1; test: Native gel electrophoresis of PAI incubated with peptide; assay type: binding
# Protocol: as §1
# Four of the five peptides have a net negative charge due to glutamic acid residues and the free carboxy terminus (FIG. 1). The wtPAI 8-mer has a net -1 charge (the carboxy terminus). The V→E PAI 8-mer (SEQ ID NO:3) and consensus 8-mer (SEQ ID NO:4) each have a -2 charge (the glutamic acid residue and the carboxyl group). […] The PAI 14-mer (SEQ ID NO:1) is uncharged since it contains no glutamic acid and the arginine and carboxyl groups neutralize each other. Because of the negative charges of 4 of the peptides, native gels of PAI annealed to these peptides should show a band which migrates more quickly than the band representative of free active PAI. Similarly, if one of these peptides is incubated with PAI but fails to form a strong interaction with PAI, native gels should show a band which migrates identically to the free PAI.
# PAI-1 [3] = target: T1, PAI-1; test: Kinetics of peptide annealing: residual PAI inhibitory activity assayed with β-trypsin and S-2222; assay type: biochemical; settings: peptide 5.5 mM; 25° C.
# Protocol: PAI-1 (6.4 μM) was incubated with increasing concentrations of each peptide at 23° C. and the (T1/2) of PAI-1 inactivation was determined by measuring the PAI-1 activity remaining over time.
# Peptides were dissolved in 1 mM HCl+1% TWEEN-80 (the three PAI peptides) (SEQ ID NOS: 1-3), or in 0.1M HEPES (SEQ ID NOS: 4-5), 0.1M NaCl, 0.1% PEG-8000, pH […] (the two consensus peptides). Peptides were annealed to active PAI by incubation of active PAI in 0.1M HEPES, 0.1M NaCl, 0.1% PEG-8000, pH 7.4 with a peptide in its solvent. Ten percent of the final incubation mixture consisted of the peptide solvent. Incubation was carried out at 25° C. until no PAI inhibitory activity remained as determined by kinetics rate assays with trypsin, described below. The final concentration of PAI in the incubation mixture was either 0.9 μM (for kinetics assays) or 6.3 μM (for gels and purification). The peptide concentrations varied greatly due to the individual solubilities and rates of insertion of each peptide. These concentrations are given in the legends of the appropriate figures.
# During annealing of 0.9 μM PAI with a peptide, the residual inhibitory activity of PAI was measured after varying incubation times by assaying an aliquot of the sample with β-trypsin. Trypsin (1 nM final concentration) was added to the chromogenic substrate S-2222 (950 μM) with 27 nM PAI sample. The absorbance at 405 nm was measured continuously for at least 12.5 min in a Shimadzu UV-265 UV-visible spectrophotometer. The pseudo-first order rate constant of trypsin is an indirect measure of the amount of PAI that has lost inhibitory activity due either to annealing or to becoming latent. The rate constant of controls containing the peptide solvent but no peptide was subtracted from that of the experimental assays in order to correct for the effect of the simultaneous change of PAI from the active to the latent state.
# T1 sequence (P05121 24-402): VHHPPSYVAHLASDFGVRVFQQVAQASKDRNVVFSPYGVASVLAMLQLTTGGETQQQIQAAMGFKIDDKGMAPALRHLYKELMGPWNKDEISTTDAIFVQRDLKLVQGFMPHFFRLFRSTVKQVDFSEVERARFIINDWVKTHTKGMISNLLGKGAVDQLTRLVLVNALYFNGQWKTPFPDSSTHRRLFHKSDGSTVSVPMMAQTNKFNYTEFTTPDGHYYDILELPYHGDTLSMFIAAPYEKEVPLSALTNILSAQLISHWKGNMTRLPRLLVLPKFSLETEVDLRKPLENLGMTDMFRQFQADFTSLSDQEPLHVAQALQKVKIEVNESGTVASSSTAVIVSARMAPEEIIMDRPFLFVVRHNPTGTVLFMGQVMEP
# T2 sequence (P05121 24-402): as above
substance,measurement,setting,value
"Ac-TVASSSTAVIVSAR [SEQ ID NO: 1, Thr-Val-Ala-Ser-Ser-Ser-Thr-Ala-Val-Ile-Val-Ser-Ala-Arg]",formation of SDS stable PAI-1:enzyme complexes after peptide treatment,PAI-1 [1],no t-PA:PAI-1 complex formation was observed
same,formation of SDS stable PAI-1:enzyme complexes after peptide treatment,PAI-1 [1]; listed as P1-P14 peptide,inhibited complex formation
same,PAI forms on SDS-PAGE,PAI-1 [1]; high peptide concentration,almost all of the PAI is in the latent conformation
same,PAI forms on SDS-PAGE,PAI-1 [1]; low peptide concentration,a significant substrate band formed along with the dominant latent PAI band
same,conversion of PAI-1 to a substrate (cleaved PAI-1),PAI-1 [1],did not convert PAI-1 to a substrate form; also recorded: substrate form of PAI-1 was not generated
same,conversion of PAI-1 to a substrate (cleaved PAI-1),PAI-1 [1]; listed as wt14-mer,did not behave as a substrate
same,T1/2 of vitronectin-bound PAI-1,vitronectin-bound PAI-1; peptide 55 μM,about 120 minutes
same,T1/2 of vitronectin-bound PAI-1,"vitronectin-bound PAI-1; peptide 55 μM, listed as P1-P14 peptide",only slowly inactivated
same,decrease of the half-life of PAI-1 in the presence of vitronectin,vitronectin-bound PAI-1; from approximately 190 to about 120 minutes,~40%
same,fold decrease of the half-life of vitronectin-bound PAI-1,vitronectin-bound PAI-1; peptide 55 μM,1.6 fold
same,"electrophoretic mobility of active PAI incubated with peptide, native gel",PAI-1 [2],a band at the same position as free active PAI
same,k,PAI-1 [3],.014 M⁻¹ s⁻¹
